{"source": "paper PMC12051620", "about": "“Molecular basis underlying the specificity of an antagonist AA92593 for mammalian melanopsins” (The Journal of Biological Chemistry, 2025)", "assay_in_all_cases": "NanoBiT Gq dissociation assay using Gqα/R183Q-LgBiT", "format_in_all_cases": "cell-based", "key": {"human melanopsin WT": {"molecular_target": "T1, human melanopsin WT (Homo sapiens, UniProt Q9UHM6)", "T1 construct": "expressed in transfected cells; host or cells: COS-1", "T1 sequence (Q9UHM6 1-384 limits assumed)": "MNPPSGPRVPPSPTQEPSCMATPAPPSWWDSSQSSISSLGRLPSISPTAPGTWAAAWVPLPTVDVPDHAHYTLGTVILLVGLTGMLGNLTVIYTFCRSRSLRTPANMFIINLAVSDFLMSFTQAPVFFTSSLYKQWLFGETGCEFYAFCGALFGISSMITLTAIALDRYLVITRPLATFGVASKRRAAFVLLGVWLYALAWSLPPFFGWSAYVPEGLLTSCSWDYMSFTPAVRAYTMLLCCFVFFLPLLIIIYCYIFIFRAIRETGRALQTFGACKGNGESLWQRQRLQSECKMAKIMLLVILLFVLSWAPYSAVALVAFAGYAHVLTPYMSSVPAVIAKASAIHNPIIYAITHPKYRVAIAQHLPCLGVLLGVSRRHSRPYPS", "conditions": "1.67 and 16.7 μM AA92593; COS-1 cells; concentration-dependent", "description": "(§1) As described above, we have assessed the inhibitory effect of AA92593 using the GsX GloSensor assay. To confirm whether an antagonistic effect could be observed in another experimental system, we used the NanoBiT G protein dissociation assay ([23]). In this assay, Gq activation (dissociation) is detected as a decrease in NanoLuc luminescence from the Lg-BiT fragment inserted with Gqα and the Sm-BiT fragment fused with Gβγ (see “Experimental procedures”) ([23], [24]). If an antagonistic effect is observed in the NanoBiT assay, the light-dependent decrease in luminescence (Gq dissociation) by melanopsin would be reduced in the presence of AA92593. […] A recent study reported that the introduction of a GTPase-deficient substitution, R183Q, on Gqα increased GPCR-induced Gq dissociation signals in a BRET-based biosensor assay, TRUPATH ([25]). […]\n(§2) For GloSensor assay, opsins, GloSensor assay sensor (coded by pGlo-22F), and NanoBiT-tagged G proteins were transiently expressed in COS-1 cells (kindly provided from Dr David Farrens, Oregon Health and Science University) using PEI as described previously ([24], [52]). […] For GFP-fluorescence microscopy, a 35-mm cell culture dish (IWAKI) was transfected with 2 μg melanopsin-GFP plasmid and 8 μg PEI in 400 μl Opti-mem and 1.2 ml D-MEM. […]\n(§3) The transfected COS-1 cells were incubated at 37 °C, 5% CO2 for 1 day, and the medium was aspirated, followed by the addition of 50 μl of HBSS containing 33.3, 3.33, or 0 μM AA92593, 0.5% DMSO, and 10 μM coelenterazine h (Wako). […] After incubation of the cells, luminescence measurement was interrupted, the plate was ejected, and the cells were added 50 μl of HBSS containing 0.2 μM 9-cis-retinal. […] Luminescence was measured using GM-2000 or GM-3510 microplate reader (Promega). Luminescence level of each well was measured every 18 s with integration time of 0.3 s. To illuminate opsins, luminescence measurement was interrupted, the plate was ejected, and the plate was illuminated by white light with CN-160 LED video light (light intensity, ∼9 mW/cm^2) (NEEWER). After illumination, luminescence measurement was resumed. […]"}, "[1]": {"molecular_target": "T2, human melanopsin F94^2.61C/S188^ECL2T/S269^6.52A mutant (Homo sapiens, UniProt Q9UHM6, F127C/S222T/S313A)", "T2 construct": "expressed in transfected cells; host or cells: COS-1", "T2 sequence (Q9UHM6 1-384 F127C/S222T/S313A)": "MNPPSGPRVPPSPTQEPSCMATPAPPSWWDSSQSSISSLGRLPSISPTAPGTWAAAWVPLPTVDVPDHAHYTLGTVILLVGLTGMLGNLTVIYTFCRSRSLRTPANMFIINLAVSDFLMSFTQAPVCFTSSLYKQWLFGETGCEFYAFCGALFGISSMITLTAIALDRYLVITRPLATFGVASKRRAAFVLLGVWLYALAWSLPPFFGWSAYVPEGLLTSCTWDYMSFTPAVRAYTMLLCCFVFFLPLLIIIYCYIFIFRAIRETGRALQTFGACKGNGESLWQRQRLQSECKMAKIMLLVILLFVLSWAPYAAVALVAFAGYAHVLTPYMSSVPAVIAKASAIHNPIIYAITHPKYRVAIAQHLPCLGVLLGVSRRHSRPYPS", "conditions": "1.67 and 16.7 μM AA92593; COS-1 cells", "description": "as §1, §2, §3"}, "[2]": {"molecular_target": "T3, human melanopsin F94^2.61C/S188^ECL2T/W189^ECL2F/S269^6.52A mutant (Homo sapiens, UniProt Q9UHM6, F127C/S222T/S313A/W223F)", "T3 construct": "expressed in transfected cells; host or cells: COS-1", "T3 sequence (Q9UHM6 1-384 F127C/S222T/W223F/S313A)": "as the sequence (Q9UHM6 1-384 F127C/S222T/S313A) above, with W223F counted along it", "conditions": "1.67 and 16.7 μM AA92593; COS-1 cells", "description": "as §1, §2, §3"}}, "note": "Entries after “also recorded” stand apart in the source; their conditions may differ."}
{"smiles": "COc1ccc(S(=O)(=O)N2CCCCC2)cc1C", "note": "[AA92593]", "values": [{"measurement": "effect on light-dependent decrease in NanoLuc luminescence (Gq dissociation)", "setting": "human melanopsin WT", "result": "weakened"}, {"measurement": "AA92593-dependent inhibitory effect on Gq activation compared to WT", "setting": "[1]", "result": "much reduced; also recorded: almost insensitive"}, {"measurement": "sensitivity to AA92593 in Gq dissociation", "setting": "[2]", "result": "little sensitivity"}]}
